# Laboratory results from patent publication US20070197599A1, “HYDROXYLAMINES AND DERIVATIVES AS ANTI-ANGIOGENIC AGENTS” (priority 2006, published 2007).
# Columns and labels:
# [1] = system: H2O2-induced angiogenesis in the CAM model; assay: H2O2-induced angiogenesis in the chick chorioallantoic membrane (CAM) model; format: in vivo
# Procedure: (§1) Neovascularization was examined by previously described methods (see references at the end of Example 5). Ten-day-old fertilized chicken eggs were incubated at 37° C. with 55% relative humidity. In the dark with the help of candling lamp and using a hypodermic needle a small hole was punctured in the shell covering the air sac. A second hole was punctured on the wider side of the egg above an avascular area of the embryonic membrane. An artificial air sac was created below the second hole by applying gentle vacuum to the first hole using a small rubber squeeze bulb. The vacuum caused the separation of chorioallantoic membrane (CAM) from the shell. An approximately 1.0 cm^2 widow was cut in the shell over the dropped CAM with the use of a mini drill. The underlying CAM was accessed through this small window.
# (§2) Filter disks were punched using a small puncher from filter paper #1 (Whatman International, United Kingdom). Filter disks were soaked in 3 mg/ml cortisone acetate solution (95% ethanol and water) and air-dried under sterile condition. For inducing angiogenesis, sterile filter disks were saturated with bFGF (1 μg/ml) or other pro-angiogenesis factors and control disks were saturated with PBS without Calcium and Magnesium.
# (§3) Using sterile forceps one filter/CAM was placed from the window. The window was sealed with Highland brand transparent tape. After 24 hr, 10-25 µl of test agent (inhibitor) was injected intravenously or added topically into the CAM membrane of bFGF or other pro-angiogenesis factors stimulated CAMs. • Control filter disks received PBS without Calcium and Magnesium. • After 48 hr, CAM tissue directly beneath filter disk was harvested and placed in a 35-mm Petri dish. Eight-Ten eggs/treatment group was used.
# (§4) A pro-angiogenic agent (see Examples, below) was added to induce new blood vessel branches on the CAM of 10-day old embryos. Sterile disks of #1 filter paper (Whatman International, United Kingdom) were pre-treated with 3 mg/ml cortisone acetate, and air dried under sterile conditions. The disks were then suspended in PBS (Phosphate Buffered Saline) and placed on growing CAMs. Filters treated with TPH (TEMPOL-H) or TEMPOL and/or H2O2 or TPH and/or bFGF or VEGF were placed on the first day of the 3-day incubation.
# (§5) Digital Images and Microscopic analysis of CAM sections: CAM sections from Petri dish were examined using SV6 stereomicroscope (Karl Zeiss) at 50× magnification. Digital images were captured using a 3-CCD color video camera system (Toshiba America, New York, N.Y.). These images were analyzed using Image-Pro Plus software (Media Cybernetics). The number of branch points in blood vessels within the circular region superimposed to the area of a filter disk was counted for each section. After incubation at 37° C. with 55% relative humidity for 3 days, the CAM tissue directly beneath each filter disk was resected from control and treated CAM samples. Tissues were washed three times with PBS. Sections were placed in a 35-mm Petri dish (Nalge Nunc; Rochester, N.Y.) and were examined under a SV6 stereomicroscope (Karl Zeiss; Thornwood, N.Y.) at 50× magnification. Digital images of CAM sections adjacent to filters were collected using a 3-CCD color video camera system (Toshiba America; New York, N.Y.) and analyzed with the Image-Pro Plus software (Media Cybernetics; Silver Spring, Md.). The number of vessel branch points contained in a circular region equal to the area of a filter disk was counted for each section. Percent inhibition data are expressed as the quotient of the experimental value minus the negative control value divided by the difference between the positive control value and the negative control value. One image was counted in each CAM preparation, and findings from eight CAM preparations were analyzed for each treatment condition. In addition, each experiment was performed three times. […]
# [2] = system: VEGF-induced angiogenesis in the CAM model; assay: VEGF-induced angiogenesis in the CAM model (TPH); format: in vivo, chick
# Procedure: as §1, §2, §3, §4, §5
# [3] = In vitro stability of Compound 1 in rabbit plasma; format: in vitro ADME; details: formed from OT-551 (Compound 1, 1000 ng/mL)
# Procedure: (§6) The active metabolite of Compound 1 (Cyclopropanecarboxylic acid 1-hydroxy-2,2,6,6-tetramethyl-piperidin-4-yl ester) is TPH. The objective of this analysis was to determine the in vitro half-life of Compound 1 in rat, rabbit, dog, and human plasma under standardized incubation conditions.
# (§7) Compound 1 was incubated with pooled rat, rabbit, dog, and human plasma for various times under standardized incubation conditions. Pre-labeled tubes containing pooled plasma from rats, rabbits, dogs, and humans were pre-incubated in a shaking 37° C. water bath. A Compound 1 solution was added to the tubes at a final concentration of 1000 ng/mL. Time zero samples (n=5) were immediately removed and transferred into tubes containing a stabilizer solution (DTPA, acetylcysteine and ascorbic acid), the LC/MS/MS assay internal standard and methanol. […] The tubes were vortexed, placed on ice, followed by centrifugation. One hundred-μL aliquots of the supernatant were transferred into HPLC sample vials. Additional tubes (n=5 at each time point) were incubated for 5, 10, 20, 30, 60, 120, and 240 minutes at 37° C. and thereafter processed. The amount of Compound 1 and TPH in each incubated sample was quantified using validated LC/MS/MS assays.
# [4] = In vitro stability of Compound 1 in human plasma; format: in vitro ADME; details: formed from OT-551 (Compound 1, 1000 ng/mL)
# Procedure: as §6, §7
# mouse V79 cells = details: Mitchell et al., 2000; cited from earlier work
# [5] = H2O2 (88 μM, 30 ng) + 100 μg test agent
# [6] = H2O2 (88 μM, 30 ng) + 200 μg test agent
# [7] = H2O2 (88 μM, 30 ng) + 400 μg test agent
# [8] = H2O2 (88 μM, 30 ng) + 800 μg test agent
smiles,measurement,setting,value
CC1(C)CC(O)CC(C)(C)N1O [TPH],inhibition of angiogenesis induced by super-maximal concentrations of H2O2,"[1]; CAM model, Tables 1A and 1B",effectively inhibited
same,% Inhibition ± SD,[1]; [5],28.0 ± 13.6 %
same,Branch pts ± SEM,[1]; [5],155 ± 14.4
same,% Inhibition ± SD,[1]; [6],32.9 ± 8.4 %
same,Branch pts ± SEM,[1]; [6],151.3 ± 15.3
same,% Inhibition ± SD,[1]; [7],44.7 ± 6.6 %
same,Branch pts ± SEM,[1]; [7],137.2 ± 6.9
same,% Inhibition ± SD,[1]; [8],55.7 ± 7.2 %
same,Branch pts ± SEM,[1]; [8],127.3 ± 6.4
same,inhibition of VEGF-induced angiogenesis,[2]; 100-800 μg (Table 3),dose-dependent inhibition
same,anti-angiogenesis efficacy against VEGF-induced angiogenesis as compared with bFGF,[2]; Tables 2 and 3,much greater
same,Mean % Inhibition ± SD,[2]; VEGF (2 μg/ml) + TPH 100 μg,37.6 ± 6.9 %
same,Mean Branch points ± SD,[2]; VEGF (2 μg/ml) + TPH 100 μg,154.8 ± 7.5
same,Mean % Inhibition ± SD,[2]; VEGF (2 μg/ml) + TPH 200 μg,42 ± 3.5 %
same,Mean Branch points ± SD,[2]; VEGF (2 μg/ml) + TPH 200 μg,150 ± 3.8
same,Mean % Inhibition ± SD,[2]; VEGF (2 μg/ml) + TPH 400 μg,53.3 ± 3.3 %
same,Mean Branch points ± SD,[2]; VEGF (2 μg/ml) + TPH 400 μg,137.8 ± 3.0
same,Mean % Inhibition ± SD,[2]; VEGF (2 μg/ml) + TPH 800 μg,70.7 ± 9.1 %
same,Mean Branch points ± SD,[2]; VEGF (2 μg/ml) + TPH 800 μg,118.8 ± 9.9
same,Concentration of TPH in plasma,[3]; incubation 0 min,270.55 ± 35.45 ng/mL
same,Concentration of TPH in plasma,[3]; incubation 5 min,587.17 ± 21.99 ng/mL
same,Concentration of TPH in plasma,[3]; incubation 10 min,604.21 ± 21.99 ng/mL
same,Concentration of TPH in plasma,[3]; incubation 20 min,590.06 ± 40.97 ng/mL
same,Concentration of TPH in plasma,[3]; incubation 30 min,533.01 ± 117.40 ng/mL
same,Concentration of TPH in plasma,[3]; incubation 60 min,569.19 ± 32.96 ng/mL
same,Concentration of TPH in plasma,[3]; incubation 120 min,525.63 ± 10.31 ng/mL
same,Concentration of TPH in plasma,[3]; incubation 240 min,477.54 ± 40.95 ng/mL
same,Concentration of TPH in plasma,[4]; incubation 0 min,48.76 ± 2.84 ng/mL
same,Concentration of TPH in plasma,[4]; incubation 5 min,186.71 ± 4.58 ng/mL
same,Concentration of TPH in plasma,[4]; incubation 10 min,241.99 ± 8.05 ng/mL
same,Concentration of TPH in plasma,[4]; incubation 20 min,310.10 ± 8.54 ng/mL
same,Concentration of TPH in plasma,[4]; incubation 30 min,365.53 ± 14.44 ng/mL
same,Concentration of TPH in plasma,[4]; incubation 60 min,449.85 ± 9.73 ng/mL
same,Concentration of TPH in plasma,[4]; incubation 120 min,519.12 ± 19.52 ng/mL
same,Concentration of TPH in plasma,[4]; incubation 240 min,501.39 ± 11.33 ng/mL
same,radioprotection of mouse V79 cells,mouse V79 cells,did not provide any radioprotection
